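Assay format: 96-well plates, 48-hour exposure. TGI marks complete inhibition of growth.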
Tests used:
Assay in all cases: growth of human tumour cells (NCI), 48 h
[1] = system: 786-0 renal
[2] = system: A498 renal
[3] = system: A549 NSCLC
[4] = system: ACHN renal
[5] = system: CAKI-1 renal
[6] = system: CCRF-CEM leukemia
[7] = system: COLO 205 colon
[8] = system: DLD-1 colon
[9] = system: DMS 114 small cell lung
[10] = system: DMS 273 small cell lung
[11] = system: EKVX NSCLC
[12] = system: HCC-2998 colon
[13] = system: HCT-116 colon
[14] = system: HCT-15 colon
[15] = system: HL-60(TB) leukemia
[16] = system: HOP-18 NSCLC
[17] = system: HOP-62 NSCLC
[18] = system: HOP-92 NSCLC
[19] = system: HT29 colon
[20] = system: IGROV1 ovarian
[21] = system: K-562 leukemia
[22] = system: KM12 colon
[23] = system: KM20L2 colon
[24] = system: LOX IMVI melanoma
[25] = system: LXFL 529 NSCLC
[26] = system: M14 melanoma
[27] = system: M19-MEL melanoma
[28] = system: MALME-3M melanoma
[29] = system: MOLT-4 leukemia
[30] = system: NCI-H226 lung
[31] = system: NCI-H23 lung
[32] = system: NCI-H460 lung
[33] = system: NCI-H522 lung
[34] = system: OVCAR-3 ovarian
[35] = system: OVCAR-4 ovarian
[36] = system: OVCAR-5 ovarian
[37] = system: OVCAR-8 ovarian
[38] = system: RPMI-8226 leukemia
[39] = system: RXF 393 renal
[40] = system: RXF-631 renal
[41] = system: SF-268 CNS
[42] = system: SF-295 CNS
[43] = system: SF-539 CNS
[44] = system: SK-MEL-2 melanoma
[45] = system: SK-MEL-28 melanoma
[46] = system: SK-MEL-5 melanoma
[47] = system: SK-OV-3 ovarian
[48] = system: SN12C renal
[49] = system: SNB-19 CNS
[50] = system: SNB-75 CNS
[51] = system: SNB-78 CNS
[52] = system: SR leukemia
[53] = system: SW-620 colon
[54] = system: TK-10 renal
[55] = system: U251 CNS
[56] = system: UACC-257 melanoma
[57] = system: UACC-62 melanoma
[58] = system: UO-31 renal
[59] = system: XF 498 CNS

Oc1cc2cc(-c3ccccc3)[nH]c2c2ccccc12
TGI [1]: > 100 µM
TGI [2]: > 100 µM
TGI [3]: > 100 µM
TGI [4]: > 88.3 µM
TGI [5]: 90.8 µM
TGI [6]: > 100 µM
TGI [7]: > 37.8 µM
TGI [8]: > 100 µM
TGI [9]: 27.7 µM
TGI [10]: 2.06 µM
TGI [11]: > 100 µM
TGI [12]: > 100 µM
TGI [13]: 37.1 µM
TGI [14]: > 100 µM
TGI [15]: > 100 µM
TGI [16]: > 96 µM
TGI [17]: > 100 µM
TGI [18]: > 95.6 µM
TGI [19]: > 100 µM
TGI [20]: > 100 µM
TGI [21]: > 88.8 µM
TGI [22]: > 100 µM
TGI [23]: > 100 µM
TGI [24]: 34.3 µM
TGI [25]: > 100 µM
TGI [26]: 61 µM
TGI [27]: 28.9 µM
TGI [28]: 41.6 µM
TGI [29]: > 82.6 µM
TGI [30]: > 100 µM
TGI [31]: 36.6 µM
TGI [32]: 72.1 µM
TGI [33]: 37.4 µM
TGI [34]: > 61.4 µM
TGI [35]: > 100 µM
TGI [36]: > 100 µM
TGI [37]: > 100 µM
TGI [38]: 67.6 µM
TGI [39]: > 78.3 µM
TGI [40]: > 89.8 µM
TGI [41]: > 100 µM
TGI [42]: > 24.5 µM
TGI [43]: 97.1 µM
TGI [44]: 43.5 µM
TGI [45]: > 100 µM
TGI [46]: 27.2 µM
TGI [47]: > 100 µM
TGI [48]: > 92.9 µM
TGI [49]: > 70.2 µM
TGI [50]: > 100 µM
TGI [51]: > 100 µM
TGI [52]: > 93.6 µM
TGI [53]: > 100 µM
TGI [54]: > 100 µM
TGI [55]: > 100 µM
TGI [56]: 32.5 µM
TGI [57]: 29.4 µM
TGI [58]: > 92.6 µM
TGI [59]: 25.9 µM

Cc1ccc(S(=O)(=O)C(C#N)c2nc3ccccc3nc2-n2cccn2)cc1 (stereo unspecified)
TGI [1]: > 100 µM
TGI [3]: > 100 µM
TGI [4]: > 100 µM
TGI [6]: > 100 µM
TGI [7]: > 100 µM
TGI [8]: > 100 µM
TGI [9]: > 100 µM
TGI [10]: > 100 µM
TGI [11]: > 100 µM
TGI [12]: > 100 µM
TGI [13]: > 100 µM
TGI [14]: > 100 µM
TGI [15]: > 100 µM
TGI [16]: > 100 µM
TGI [18]: > 100 µM
TGI [19]: > 100 µM
TGI [20]: > 100 µM
TGI [21]: > 100 µM
TGI [22]: > 100 µM
TGI [25]: > 100 µM
TGI [26]: > 100 µM
TGI [27]: > 100 µM
TGI [28]: > 100 µM
TGI [29]: > 100 µM
TGI [30]: > 100 µM
TGI [31]: > 100 µM
TGI [32]: > 100 µM
TGI [34]: > 100 µM
TGI [35]: > 100 µM
TGI [36]: > 100 µM
TGI [37]: > 100 µM
TGI [38]: > 100 µM
TGI [41]: > 100 µM
TGI [42]: > 100 µM
TGI [43]: > 100 µM
TGI [44]: > 100 µM
TGI [45]: > 100 µM
TGI [47]: > 100 µM
TGI [48]: > 100 µM
TGI [49]: > 100 µM
TGI [50]: > 100 µM
TGI [51]: > 100 µM
TGI [54]: > 100 µM
TGI [55]: > 100 µM
TGI [56]: > 100 µM
TGI [58]: > 100 µM
TGI [59]: > 100 µM

— PubChem BioAssay (NCI)
